Source: ChEMBL document CHEMBL1123242, “Derivatives of 1-(1,3-benzodioxol-5-yl)-2-butanamine: representatives of a novel therapeutic class” (1986)

What was measured:
Assay type in all cases: functional
Rattus norvegicus [1] = experiment: Compound was tested for hallucinogenic activity in rats at 1.72 dose(mg/kg); Number of rats selecting the LSD lever/ number of rats responding (7/8)
Rattus norvegicus [2] = experiment: Compound was tested for hallucinogenic activity in rats at 0.32(mg/kg)
Rattus norvegicus [3] = experiment: Compound was tested for hallucinogenic activity in rats at 0.32dose (mg/kg); Number of rats selecting the LSD lever/ number of rats responding (0/8)
Rattus norvegicus [4] = experiment: Compound was tested for hallucinogenic activity in rats at 1.29 dose(mg/kg); Number of rats selecting the LSD lever/ number of rats responding (5/8)
Rattus norvegicus [5] = experiment: Compound was tested for hallucinogenic activity in rats at 0.63 dose(mg/kg); Number of rats selecting the LSD lever/ number of rats responding (2/8)
Rattus norvegicus [6] = experiment: Compound was tested for hallucinogenic activity in rats at the dose 0 (mg/kg)
Rattus norvegicus [7] = experiment: Compound was tested for hallucinogenic activity in rats at 2.19 dose(mg/kg); 0/1, highest dose tested
Rattus norvegicus [8] = experiment: Compound was tested for hallucinogenic activity in rats at 1.38 dose(mg/kg); Number of rats selecting the LSD lever/ number of rats responding (2/8)
Rattus norvegicus [9] = experiment: Compound was tested for hallucinogenic activity in rats at 1.84 dose(mg/kg); Number of rats selecting the LSD lever/ number of rats responding (3/8)
Rattus norvegicus [10] = experiment: Compound was tested for hallucinogenic activity in rats at the dose 0.34 (mg/kg); Number of rats selecting the LSD lever/ number of rats responding (2/8)
Rattus norvegicus [11] = experiment: Compound was tested for hallucinogenic activity in rats at the dose 0.69(mg/kg); Number of rats selecting the LSD lever/ number of rats responding (0/8)
Rattus norvegicus [12] = experiment: Compound was tested for hallucinogenic activity in rats at the dose 0.17(mg/kg); Number of rats selecting the LSD lever/ number of rats responding […])
Rattus norvegicus [13] = experiment: Compound was tested for hallucinogenic activity in rats at 0.69 dose(mg/kg); Number of rats selecting the LSD lever/ number of rats responding (4/8)
Rattus norvegicus [14] = experiment: Compound was tested for hallucinogenic activity in rats at the dose 0.34(mg/kg); Number of rats selecting the LSD lever/ number of rats responding (2/8)
Rattus norvegicus [15] = experiment: Compound was tested for hallucinogenic activity in rats at 1.82 dose (mg/kg); 0/0, highest dose tested
Rattus norvegicus [16] = experiment: Compound was tested for hallucinogenic activity in rats at dose 1.38(mg/kg); Number of rats selecting the LSD lever/ number of rats responding (4/8)
Rattus norvegicus [17] = experiment: Compound was tested for hallucinogenic activity in rats at dose 1.72 (mg/kg); Number of rats selecting the LSD lever/ number of rats responding (4/8)
Rattus norvegicus [18] = experiment: Compound was tested for hallucinogenic activity in rats at 3.65 dose(mg/kg); 0/1, highest dose tested
Rattus norvegicus [19] = experiment: Compound was tested for hallucinogenic activity in rats at 2.19 dose(mg/kg); Number of rats selecting the LSD lever/ number of rats responding (2/8)
Rattus norvegicus [20] = experiment: Compound was tested for hallucinogenic activity in rats at 1.83 dose (mg/kg); Number of rats selecting the LSD lever/ number of rats responding (1/8)
Rattus norvegicus [21] = experiment: Compound was tested for hallucinogenic activity in rats at the dose 0.17 mg/kg); Number of rats selecting the LSD lever/ number of rats responding (3/8)
Rattus norvegicus [22] = experiment: Compound was tested for hallucinogenic activity in rats at 0.73(mg/kg); Number of rats selecting the LSD lever/ number of rats responding (1/8)
Rattus norvegicus [23] = experiment: Compound was tested for hallucinogenic activity in rats at the dose 0.37(mg/kg); Number of rats selecting the LSD lever/ number of rats responding (1/8)
Rattus norvegicus [24] = experiment: Compound was tested for hallucinogenic activity in rats at 2.56 dose(mg/kg); Number of rats selecting the LSD lever/ number of rats responding (2/8)
Rattus norvegicus [25] = experiment: Compound was tested for hallucinogenic activity in rats at dose 1.46 (mg/kg); Number of rats selecting the LSD lever/ number of rats responding (1/8)
Rattus norvegicus [26] = experiment: Compound was tested for hallucinogenic activity in rats at 2.92 dose(mg/kg); Number of rats selecting the LSD lever/ number of rats responding (3/8)
Rattus norvegicus [27] = experiment: Compound was tested for hallucinogenic activity in rats at the dose 0.0025 (mg/kg)
Rattus norvegicus [28] = experiment: Compound was tested for hallucinogenic activity in rats at the dose of 0.005(mg/kg); Number of rats selecting the LSDlever/ number of rats responding (4/8)
Rattus norvegicus [29] = experiment: Compound was tested for hallucinogenic activity in rats at the dose of 0.0025 (mg/kg); Number of rats selecting the LSDlever/ number of rats responding (0/8)
Rattus norvegicus [30] = experiment: Compound was tested for hallucinogenic activity in rats at the dose of 0.04(mg/kg); Number of rats selecting the LSDlever/ number of rats responding (6/8)
Rattus norvegicus [31] = experiment: Compound was tested for hallucinogenic activity in rats at the dose of 0.08(mg/kg); Number of rats selecting the LSDlever/ number of rats responding (8/8)
Rattus norvegicus [32] = experiment: Compound was tested for hallucinogenic activity in rats at the dose of 0.01(mg/kg); Number of rats selecting the LSDlever/ number of rats responding (4/8)
Rattus norvegicus [33] = experiment: Compound was tested for hallucinogenic activity in rats at the dose of 0.02(mg/kg); Number of rats selecting the LSDlever/ number of rats responding (5/8)
Rattus norvegicus [34] = experiment: Compound was tested for hallucinogenic activity in rats at dose 1.29(mg/kg); Number of rats selecting the LSD lever/ number of rats responding (3/8)
Rattus norvegicus [35] = experiment: Compound was tested for hallucinogenic activity in rats at the dose 0.32(mg/kg); Number of rats selecting the LSD lever/ number of rats responding (2/8)
Rattus norvegicus [36] = experiment: Compound was tested for hallucinogenic activity in rats at the dose 0.16(mg/kg); Number of rats selecting the LSD lever/ number of rats responding (1/8)
Rattus norvegicus [37] = experiment: Compound was tested for hallucinogenic activity in rats at 1.62 dose(mg/kg); Number of rats selecting the LSD lever/ number of rats responding (2/6)
Rattus norvegicus [38] = experiment: Compound was tested for hallucinogenic activity in rats at 1.73 dose(mg/kg); 0/0, highest dose tested

CC(N)Cc1ccc2c(c1)OCO2 (racemic) [TENAMFETAMINE]
Result (Rattus norvegicus [1]): 7 | ED50 (Rattus norvegicus [2]): 0.97 mg/kg | Result (Rattus norvegicus [3]): 0 | Result (Rattus norvegicus [4]): 5 | Result (Rattus norvegicus [5]): 2 | ED50 (Rattus norvegicus [6]): 4.52 µmol/kg

CNC(C)Cc1ccc2c(c1)OCO2 (racemic) [MIDOMAFETAMINE]
Result (Rattus norvegicus [7]): 0 | Result (Rattus norvegicus [8]): 2 | Result (Rattus norvegicus [9]): 3 | Result (Rattus norvegicus [10]): 2 | Result (Rattus norvegicus [11]): 0

CN[C@@H](C)Cc1ccc2c(c1)OCO2
Result (Rattus norvegicus [12]): 2 | Result (Rattus norvegicus [13]): 4 | Result (Rattus norvegicus [14]): 2 | Result (Rattus norvegicus [15]): 0 | Result (Rattus norvegicus [16]): 4 | Result (Rattus norvegicus [17]): 4

CC[C@H](Cc1ccc2c(c1)OCO2)NC
Result (Rattus norvegicus [18]): 0 | Result (Rattus norvegicus [19]): 2 | Result (Rattus norvegicus [20]): 1 | Result (Rattus norvegicus [21]): 3 | Result (Rattus norvegicus [22]): 1 | Result (Rattus norvegicus [23]): 1 | Result (Rattus norvegicus [24]): 2 | Result (Rattus norvegicus [25]): 1 | Result (Rattus norvegicus [26]): 3

CCN(CC)C(=O)[C@@H]1C=C2c3cccc4[nH]cc(c34)C[C@H]2N(C)C1 [LYSERGIDE]
ED50 (Rattus norvegicus [27]): 0.025 µmol/kg | Result (Rattus norvegicus [28]): 4 | Result (Rattus norvegicus [29]): 0 | Result (Rattus norvegicus [30]): 6 | Result (Rattus norvegicus [31]): 8 | Result (Rattus norvegicus [32]): 4 | Result (Rattus norvegicus [33]): 5

C[C@H](N)Cc1ccc2c(c1)OCO2
Result (Rattus norvegicus [34]): 3 | Result (Rattus norvegicus [35]): 2 | Result (Rattus norvegicus [36]): 1 | Result (Rattus norvegicus [5]): 2 | Result (Rattus norvegicus [37]): 2 | Result (Rattus norvegicus [38]): 0
